# What was measured:
# [1] = tested on: Wistar rats with L-NAME endothelial dysfunction; assay: Correction of endothelial dysfunction simulated by L-NAME in rats; format: in vivo, rat
# Method: Wistar rats weighed 250-300 g were divided into 4 groups. The 1st group received distilled water 9 ml/kg/day (every day, gastrointestinal introduction). […] The third group received L-NAME (12.5 mg/kg) in combination with a mixture of C12, C30, and C200 homeopathic dilutions of polyclonal rabbit antibodies to human endothelial NO synthase at 9 ml/kg/day. The 4th group received L-NAME ([…]) in combination with a mixture of C12, C30, and C200 homeopathic dilutions of polyclonal rabbit antibodies to human endothelial NO synthase at 9 ml/kg/day and mixture of C12, C30, C200 homeopathic dilutions of polyclonal rabbit antibodies to a C-terminal fragment of AT1 receptor of angiotensin II at 9 ml/kg/day.
# Endothelial dysfunction was simulated by introducing L-NAME at […] in the course of 28 days. On day 29 from the beginning of the experiment, under anesthesia (sodium thiopental at 50 mg/kg), a catheter was inserted into the left carotid artery to register parameter of arterial pressure (AP). Bolus introduction of the pharmacological agent was made into right femoral vein. The following parameters were measured: systolic arterial pressure (SAP), diastolic arterial pressure (DAP), and frequency of heart beat, which were measured in real time by sensor TSD104A measurement apparatus MP100 made by Biopac System, Inc., USA. The following functional probes were used: endothelium-dependent vasodilation (EDV), intra-vein introduction of acetylcholine (AC) in the dose of 40 μg/kg, endothelium-independent vasodilation (EIV) via intravein introduction of sodium nitroprusside at 30 μ/kg.
# The degree of endothelial dysfunction was evaluated via the coefficient of endothelial dysfunction as the ratio of the area of the triangle under the trend of reaction of stabilization of arterial pressure (AP) as a response to introduction of nitroprusside to the area of the triangle under the trend of reaction of stabilization of arterial pressure as a response to introduction of acetylcholine.
# [2] = tested on: NISAG line male rats with hereditary stipulated stress-sensitive arterial hypertension; assay: NISAG rat hypertension model, systolic blood pressure; format: in vivo
# Method: Investigations were conducted on 50 NISAG line male rats (weight 300 g, age 4 months) with hereditary stipulated stress-sensitive arterial hypertension, which were divided into 5 groups by 10 animals each.
# Two times a week, 2 to 6 hours after administration of ULD antibodies and losartan, systolic blood pressure (SBP) was measured by an indirect method in a tail artery (using a cuff).
# [3] = tested on: female Wistar rats with chronic heart failure (CHF); assay: Chronic heart failure (CHF) model induced by isadrine in rats: electrocardiogram, rheogram, exercise tolerance; details: change in % on Day 28 vs. Day 7, gastric gavage
# Method: Study of the efficacy of the combined drug based on ultra-low doses (ULD), i.e. the activated-potentiated solutions as described above, of antibodies to a C-terminal fragment of angiotensin II AT1 receptor and antibodies to endothelial NO synthase (mixture of homeopathic dilutions C12, C30 and C200) in chronic heart failure (CHF) was conducted in 75 female Wistar rats (4-5 months old, weighing 220-250 g).
# For chronic heart failure modeling all rats were receiving isadrine (isoproterenol hydrochloride, Sigma, Germany) 80 mg/kg twice with 24-hour interval. Animals (15 per group) were receiving the following drugs by gastric gavage: group 1 —7.5 mL/kg of ULD of antibodies against a C-terminal fragment of angiotensin II AT1 receptor (mixture of homeopathic dilutions C12, C30 and C200), group 2 —7.5 mL/kg of ULD of anti-endothelial NO synthase antibodies (mixture of homeopathic dilutions C12, C30 and C200), group 3 —15 mL/kg of combined drug (mixture of homeopathic dilutions C12, C30 and C200), group 4 —7.5 mL/kg (dose of 10 mg/kg) of losartan as a comparator, group 5 (control)—7.5 mL/kg of distilled water.
# [4] = functional probe: Acetyl choline 40 μg/kg, day 29
# [5] = functional probe: Initial, day 29, L-NAME 28 days
# [6] = functional probe: Sodium Nitroprusside, day 29
Compound,"Vascular reaction observed with EDV with acetyl choline ([1]; area under the curve of restoration of arterial pressure, Acetyl choline probe)","Vascular reaction observed with EIV with sodium nitroprusside ([1]; area under the curve of restoration of arterial pressure, Sodium Nitroprusside probe)","DAP [1, 4] [mm HG]","SAP [1, 4]","DAP [1, 5] [mm HG]","SAP [1, 5]","DAP [1, 6] [mm HG]","SAP [1, 6]",CED (coefficient of endothelial dysfunction) ([1]; ratio of nitroprusside area to acetylcholine area) [relative units],"Δ in comparison with the initial level, in mmHg ([2]; SBP after 28 days vs initial) [mmHg]",% of the initial level ([2]; SBP change after 28 days vs initial) [%],Initial SBP in mmHg ([2]; before treatment) [mmHg],SBP after 28 days of medicine administration in mmHg ([2]; per orally once a day for 28 days) [mmHg],Cardiac output [3] [%],Heart rate [3] [%],Systolic volume (by Kubrick) [3] [%],T-wave amplitude [3] [%]
"COC(=O)[C@@H](N)CCCNC(=N)N[N+](=O)[O-] [L-NAME, L-NG-nitroarginine methyl ester]",3700.2 ± 536.9,11922.8 ± 1838.9,64.7 ± 4.3,"111.3 ± 7.4 mm, HG",164.2 ± 5.9,"204.8 ± 10 mm, HG",61.4 ± 4.4,"118.2 ± 9.9 mm, HG",3.5 ± 0.5,–,–,–,–,–,–,–,–
"CCCCc1nc(Cl)c(CO)n1Cc1ccc(-c2ccccc2-c2nn[nH]n2)cc1 [Losartan, losartan]",–,–,–,–,–,–,–,–,–,−33,−19,173.5,140.5,55.31,−21.28,64.01,−31.64

# From patent publication US20120251584A1, “Combination pharmaceutical composition and methods of treating diseases or conditions associated with the cardiovascular system” (priority 2010, published 2012)
